The record followed here is PubChem BioAssay AID1963867 (Molecular Pharmacology Branch, DTP, NCI, 2024).

The structures appear in SMILES notation. “And” between values parts separate entries of the source, which are not always exact repeats. Equal entries are not always repeated. The source made the active and inactive calls. How the source made its calls: active means viability on the fitted dose curve at most 10% of control; inactive means the rest. Some results are limits rather than exact numbers.

This test has as its system KRAS-mutant PDC tumor spheroid with HUVEC/MSC, viability. The test can be described thus: Anticancer human tumor 327498-153-R-J2-PDC patient-derived uterine carcinosarcoma cell line growth inhibition [KRAS2]. Particulars: for viability, T/C: stronger effect = lower value. From the text:
Multicellular complex tumor spheroid response to RAS pathway inhibitors in combination with a targeted agents in patient-derived cell lines with oncogenic KRAS variants from multiple cancer types
A high-throughput screen of multi-cell type tumor spheroids was designed to identify active combinations of targeted small molecules and KRAS pathway inhibitors. Complex spheroids include a stromal component modeled by human endothelial cells (HUVEC) and fibroblasts modeled by human mesenchymal stem cells (MSCs). The concentration ranges selected for each drug and investigational agent were based upon clinically achievable concentrations if the clinical Cmax of the agent was known.
Compounds. The drugs and investigational agents: BI-3406 (NSC825286), BAY-293 (NSC824723), batoprotafib (TNO155; NSC825523), sotorasib (AMG 510; NSC818433), MRTX1257 (NSC819558), elimusertib (BAY 1895344; NSC800525), molibresib (GSK525762; NSC774829), temuterkib (LY3214996; NSC803410), venetoclax (NSC766270), alisertib (NSC759677), olaparib (NSC753686), talazoparib (NSC767125), erdafitinib (NSC781556), ipatasertib (NSC767898), cabozantinib (NSC761068), nintedanib (NSC756659), abemaciclib (NSC768073), docetaxel (NSC628503), trametinib (NSC758246), and sapanisertib (NSC764658) were obtained from the National Cancer Institute (NCI) Developmental Therapeutics Program Chemical Repository. The FDA-approved anticancer drug set is available from the Developmental Therapeutics Program. […] The stock solutions were prepared in dimethyl sulfoxide (DMSO, Sigma-Aldrich, St. Louis, MO, cat. D2650) at 800-fold the tested concentration and stored at -70 degrees C prior to their use. All drugs and investigational agents were tested over a range starting from a high concentration at or near the clinical Cmax and decreasing in half-log increments. If the clinical Cmax for an agent had not been determined, the highest concentration tested was 10 microM.
Cell Culture. All cells were maintained in an incubator at 37 degrees C and 5% CO2 with 95% humidity. The PDC lines were cultured according to standard operating procedures established by the NCI PDMR (https://pdmr.cancer.gov/sops/default.htm). Briefly, all PDCs were thawed and cultured in Matrigel-coated flasks prepared with a working solution of 1X Ham's F-12 nutrient mix, without supplementation (Invitrogen, Waltham, MA, cat. 11765054), 100 U/mL penicillin-streptomycin (Invitrogen, cat. 15140122), and 2.5% Matrigel (Corning Inc., Corning, NY, cat. 354248) for the first three passages. All PDCs were cultured in complete DMEM/F-12 media containing advanced DMEM/F-12 (Invitrogen, cat. 12634028), 4.9% defined fetal bovine serum, heat inactivated (HyClone Laboratories Inc., Logan, UT, cat. SH30070.03HI), 389 ng/mL hydrocortisone (Sigma-Aldrich, cat. H4001), 9.7 ng/mL human EGF recombinant protein (Invitrogen, cat. PHG0313), 23.4 microg/mL adenine (Sigma-Aldrich, cat. A2786), 97.3 U/mL penicillin-streptomycin (Invitrogen, cat. 15140122), 1.9 mM L-glutamine (Invitrogen, cat. 25030081), and 9.7 microM Y-27632 dihydrochloride (Tocris Bioscience, Bristol, United Kingdom, cat. 1254). The PDCs were cultured in complete DMEM/F12 media without 9.7 microM Y-27632 dihydrochloride for at least two passages prior to the screen. The established cell line HOP-62 was cultured in RPMI 1640 medium, HEPES (Invitrogen, cat. 22400105) with 10% defined fetal bovine serum (HyClone Laboratories Inc., cat. SH30070.03) and 2 mM L-glutamine (Invitrogen, cat. 25030081). The pooled donor HUVEC were cultured in endothelial cell growth medium 2 (PromoCell, Heidelberg, Germany, cat. C-22011) and the hMSC were cultured in mesenchymal stem cell growth medium 2 (PromoCell, cat. C-28009). For all experiments, HUVEC and hMSC were used at passages </=5, while the malignant cell lines were used at passages </=15. […]

[1] abbreviates: compound alone, run of 07/12/2021.
The mark [2] stands for this setting: compound alone, run of 07/19/2021.
[3] abbreviates: compound alone, run of 07/26/2021.
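Wherever IC50 is given: spheroids exposed to agents for seven days before reading.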
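Wherever viability, T/C is given: spheroids exposed to agents for seven days before reading; 100% = DMSO vehicle wells so lower means fewer viable cells.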

`C=CC(=O)N1CCN(c2nc(=O)n(-c3c(C)ccnc3C(C)C)c3nc(-c4c(O)cccc4F)c(F)cc23)C(C)C1` (stereo not given): the IC50 under setting [1] is > 10 µM and 1.31 µM and 1.22 µM.

With `C=CC(=O)N1CCN(c2nc(OCC3CCCN3C)nc3c2CCN(c2cccc4cccc(C)c24)C3)CC1CC#N` (stereo not given), the viability, T/C is 57.6% [middle of 16 runs] (compound 0.316 µM) and 49.2% [middle of 17 runs] (compound 1 µM).

With `CC1COCCN1c1cc(-c2ccnn2C)c2ccnc(-c3ccn[nH]3)c2n1` (stereo not given), the viability, T/C runs as follows: (compound 0.1 µM) 16.4% [middle of 5 runs]; (compound 0.316 µM) 6.37% [middle of 5 runs]; (compound 1 µM) 5.03% [middle of 5 runs]; (compound 3.16 µM) 4.84% [middle of 5 runs].

On to `CNCc1ccccc1-c1csc(C(C)Nc2nc(C)nc3cc(OC)c(OC)cc23)c1` (stereo not given), for which the viability, T/C is 85.7% [middle of 17 runs] (compound 0.1 µM), 77.5% [middle of 17 runs] (compound 0.316 µM) and 1.07% [middle of 17 runs] (compound 10 µM). The IC50 is, setting by setting: under setting [2], 1.43 µM [middle of 5 runs]; under setting [3], 1.48 µM [middle of 5 runs].

Consider `COC(=O)c1ccc2c(C(=Nc3ccc(N(C)C(=O)CN4CCN(C)CC4)cc3)c3ccccc3)c(O)[nH]c2c1`, for which the viability, T/C by setting is: (compound 0.0316 µM) 89.5% [middle of 5 runs]; (compound 0.1 µM) 94.6% [middle of 5 runs]; (compound 0.316 µM) 84.9% [middle of 5 runs].

For the molecule `COc1cc2nc(C)nc(NC(C)c3cc(N)cc(C(F)(F)F)c3)c2cc1OC1CCOC1` (stereo not given), for the setting “compound 0.316 µM”, the outcome was inactive. The viability, T/C (compound 3.16 µM) is 65.2% [middle of 17 runs]. Further, the half-maximal inhibitory concentration (IC50) was > 10 µM and 9.5 µM under setting [1]; > 10 µM and 8.25 µM and 8.16 µM under setting [2]; greater than 10 µM under setting [3].

As to `CC(=O)OC12COC1CC(O)C1(C)C(=O)C(O)C3=C(C)C(OC(=O)C(O)C(NC(=O)OC(C)(C)C)c4ccccc4)CC(O)(C(OC(=O)c4ccccc4)C21)C3(C)C` (stereo not given) + C=CC(=O)N1CCN(c2nc(=O)n(-c3c(C)ccnc3C(C)C)c3nc(-c4c(O)cccc4F)c(F)cc23)C(C)C1, the IC50 (curve of first compound, second compound 0.1 µM) was less than 0.01 µM; the IC50 (curve of first compound, second compound 0.316 µM) was less than 0.01 µM; the concentration for half-maximal inhibition (IC50) (curve of first compound, second compound 1 µM) is less than 0.01 µM; the IC50 (curve of first compound, second compound 3.16 µM) is less than 0.01 µM; the IC50 (curve of first compound, second compound 10 µM) was less than 0.01 µM. In addition, the viability, T/C reads like this: (second compound 0.1 µM, first compound 0.01 µM) 8.43%; (second compound 0.1 µM, first compound 0.0316 µM) 6.6%; (second compound 0.1 µM, first compound 0.1 µM) 5.43%; (second compound 0.1 µM, first compound 0.316 µM) 6.55%; (second compound 0.1 µM, first compound 1 µM) 9.48%; (second compound 0.1 µM, first compound 3.16 µM) 11.1%. For the same molecule, the viability, T/C was 7.73% (second compound 0.316 µM, first compound 0.01 µM); 6.11% (second compound 0.316 µM, first compound 0.0316 µM); 5.72% (second compound 0.316 µM, first compound 0.1 µM); 7.34% (second compound 0.316 µM, first compound 0.316 µM); 8.77% (second compound 0.316 µM, first compound 1 µM); 13.1% (second compound 0.316 µM, first compound 3.16 µM). The viability, T/C is, setting by setting: (second compound 1 µM, first compound 0.01 µM) 9.81%; (second compound 1 µM, first compound 0.0316 µM) 5.71%; (second compound 1 µM, first compound 0.1 µM) 10.5%; (second compound 1 µM, first compound 0.316 µM) 8.73%; (second compound 1 µM, first compound 1 µM) 8.75%; (second compound 1 µM, first compound 3.16 µM) 10.7%. In addition, the viability, T/C is, setting by setting: (second compound 3.16 µM, first compound 0.01 µM) 9.54%; (second compound 3.16 µM, first compound 0.0316 µM) 7.63%; (second compound 3.16 µM, first compound 0.1 µM) 7.71%; (second compound 3.16 µM, first compound 0.316 µM) 10.1%; (second compound 3.16 µM, first compound 1 µM) 11.2%; (second compound 3.16 µM, first compound 3.16 µM) 12.2%. The viability, T/C was 11.1% (second compound 10 µM, first compound 0.01 µM); 9.72% (second compound 10 µM, first compound 0.0316 µM); 12.5% (second compound 10 µM, first compound 0.1 µM); 13.3% (second compound 10 µM, first compound 0.316 µM); 12.3% (second compound 10 µM, first compound 1 µM); 12.8% (second compound 10 µM, first compound 3.16 µM).

As usually defined, the IC50 is the midpoint of a concentration-inhibition curve. By viability, T/C is commonly meant the ratio of treated to control.
